Assays:
[1] = system: PI3K; details: cited from earlier work
[2] = system: C3H mammary model; details: cited from earlier work
[3] = system: LNCap; experiment: In vitro cell culture growth assay (MTS), LNCap; type: cell-based, Human; details: prostate line, 3 days after drug treatment
Experimental: (§1) Human tumor cell lines (Table 3) include prostate lines LNCap and PC3MM2, breast lines MDA468, MCF7, renal line HTB44 (A498), colon line HCT116, and ovarian line OVCAR3. Cells were plated in 96-well culture plates.
(§2) One day following plating, the following conjugates (inhibitors) were added to cells: • Compound A 42,17′-linked wortmannin-adipate-rapamycin conjugate, diethylamine adduct • Compound B 42,17′-linked wortmannin-adipate-rapamycin conjugate. • Compound C 42,17′-linked wortmannin-succinate-rapamycin conjugate, N,N,N′-trimethyl 1,3-propanediamine adduct • Compound D 42,17′-linked wortmannin-adipate-rapamycin conjugate, diallylamine adduct • Compound E 42,17′-linked wortmannin-adipate-rapamycin conjugate, N,N,N′-trimethyl 1,3-propanediamine adduct • Compound F 42,17′-linked wortmannin-suberate-rapamycin conjugate, N,N,N′-trimethyl 1,3-propanediamine adduct.
(§3) Three days after drug treatment, viable cell densities were determined by metabolic conversion (by viable cells) of the MTS dye (3-(4,5-dimethylthiazol-2-yl)-5-(3 carboxymethoxyphenyl)-2-(4-sulfophenyl)-2H-tetrazolium, inner salt), a well established cell proliferation assay. The assays were performed using an assay kit purchased from Promega Corp. (Madison, Wis.) following the protocol supplied with the kit. The MTS assay results were read in a 96-well plate reader by measuring absorbance at 490 nm. The effect of each treatment was calculated as percent of control growth relative to the vehicle-treated cells grown in the same culture plate. The drug concentration that conferred 50% inhibition of growth was determined as IC50 (μg/mL). See, Table 3.

[4] = system: PC3MM2; experiment: In vitro cell culture growth assay (MTS), PC3MM2; type: cell-based, Human; details: prostate line, 3 days after drug treatment
Experimental: as §1, §2, §3

[5] = system: MDA468; experiment: In vitro cell culture growth assay (MTS), MDA468; type: cell-based, Human; details: breast line, 3 days after drug treatment
Experimental: as §1, §2, §3

[6] = system: MCF7; experiment: In vitro cell culture growth assay (MTS), MCF7; type: cell-based, Human; details: breast line, 3 days after drug treatment
Experimental: as §1, §2, §3

[7] = system: HTB44 (A498); experiment: In vitro cell culture growth assay (MTS), HTB44 (A498); type: cell-based, Human; details: renal line, 3 days after drug treatment
Experimental: as §1, §2, §3

[8] = system: HCT116; experiment: In vitro cell culture growth assay (MTS), HCT116; type: cell-based, Human; details: colon line, 3 days after drug treatment
Experimental: as §1, §2, §3

[9] = system: OVCAR3; experiment: In vitro cell culture growth assay (MTS), OVCAR3; type: cell-based, Human; details: ovarian line, 3 days after drug treatment
Experimental: as §1, §2, §3

[10] = system: U87MG Glioma Xenografts; experiment: Xenograft tumor efficacy study, U87MG glioma in nude mice; type: in vivo; details: for Tumor Volume mean, Day 14 / S/T (D14), Survival over total in group / t/c (Treated over control) tumor volume, Day 14: Day 14
Experimental: Female nude mice at 10 weeks of age were inoculated subcutaneously on the flank with 200 μL U87MG (human gliobastoma) tumor cell suspension. U87MG cells were suspended in full growth media and were implanted at 10 million cells per mouse. Mice were staged when tumors reached approximately 200 mm^3 in sizes. Tumor bearing mice at staging (day 0) were randomized into treatment groups (n=10). […]
The growth of tumors was monitored twice a week for the duration of the experiment. Tumor size was measured using sliding vernier calipers, and the tumor mass was calculated using the formula (length×Width^2)/2.
The experimental methods for drug preparation, dosing route, regimen, etc (listed in the Table 4) were similar to the experiments presented in the Figures. The data in Table 4 and the Figures were derived from multiple and completely different experiments. Within Table 4, the data contained separate experiments.

Compound | IC50 inhibition of tumor cell growth, LNCap [3] [µg/mL] | IC50 inhibition of tumor cell growth, PC2MM2 [4] [µg/mL] | IC50 inhibition of tumor cell growth, MDA468 [5] [µg/mL] | IC50 inhibition of tumor cell growth, MCF7 [6] [µg/mL] | IC50 inhibition of tumor cell growth, HTB44 [7] [µg/mL] | IC50 inhibition of tumor cell growth, HCT116 [8] [µg/mL] | IC50 inhibition of tumor cell growth, OVCAR3 [9] [µg/mL] | Tumor Volume mean, Day 0 ([10]; 3 mg/kg IV on day 0 and day 7) [mm^3] | Tumor Volume mean, Day 3 ([10]; 3 mg/kg IV on day 0 and day 7) [mm^3] | Tumor Volume mean, Day 7 ([10]; 3 mg/kg IV on day 0 and day 7) [mm^3] | Tumor Volume mean, Day 10 ([10]; 3 mg/kg IV on day 0 and day 7) [mm^3] | Tumor Volume mean, Day 14 ([10]; 3 mg/kg IV on day 0 and day 7) [mm^3] | t/c (Treated over control) tumor volume, Day 0 ([10]; 3 mg/kg) | t/c (Treated over control) tumor volume, Day 3 ([10]; 3 mg/kg) | t/c (Treated over control) tumor volume, Day 7 ([10]; 3 mg/kg) | t/c (Treated over control) tumor volume, Day 10 ([10]; 3 mg/kg) | S/T (D14), Survival over total in group ([10]; 3 mg/kg) | t/c (Treated over control) tumor volume, Day 14 ([10]; 3 mg/kg) | Tumor Volume mean, Day 0 ([10]; 15 mg/kg IV on day 0 and day 7) [mm^3] | Tumor Volume mean, Day 3 ([10]; 15 mg/kg IV on day 0 and day 7) [mm^3] | also measured
COCC1OC(=O)c2coc3c2C1(C)C1=C(C3=O)C2CCC(O)C2(C)CC1OC(C)=O (stereo not drawn) [17β-Hydroxywortmannin] |  |  |  |  |  |  |  |  |  |  |  |  |  |  |  |  |  |  |  |  | increase in activity relative to wortmannin ([1]; PI3K): 10 fold; IC50 [1]: 0.5 nM; anti-tumor activity in the C3H mammary model ([2]; dose of 0.5 mg/kg): no inhibition; toxicity in the C3H mammary model ([2]; dose of 1.0 mg/kg): toxicity
42,17′-linked wortmannin-adipate-rapamycin conjugate, diallylamine adduct [Compound D] | 0.21 | 0.43 | 1.15 | 0.66 | 4.10 | 5.00 | 1.75 | 185.1 | 244.5 | 435.4 | 636.4 | 1050.1 | 1.00 | 0.89 | 0.87 | 0.60 | 10/10 | 0.47 | 181.5 | 186.0 | Tumor Volume mean, Day 10 ([10]; 15 mg/kg IV on day 0 and day 7): 242.5 mm^3; Tumor Volume mean, Day 14 ([10]; 15 mg/kg IV on day 0 and day 7): 254.6 mm^3; t/c (Treated over control) tumor volume, Day 0 ([10]; 15 mg/kg): 0.98; t/c (Treated over control) tumor volume, Day 3 ([10]; 15 mg/kg): 0.68; t/c (Treated over control) tumor volume, Day 10 ([10]; 15 mg/kg): 0.23; S/T (D14), Survival over total in group ([10]; 15 mg/kg): 10/10; t/c (Treated over control) tumor volume, Day 14 ([10]; 15 mg/kg): 0.11
42,17′-linked wortmannin-adipate-rapamycin conjugate [Compound B] | 0.80 | 1.10 | 2.05 | 1.00 | 3.50 | 16.50 | 4.70 |  |  |  |  |  |  |  |  |  |  |  |  |  | 
42,17′-linked wortmannin-adipate-rapamycin conjugate, N,N,N′-trimethyl 1,3-propanediamine adduct [Compound E] | 0.25 | 1.95 | 1.35 | 1.00 | 5.00 | 7.50 | 3.15 | 182.7 | 214.7 | 340.2 | 471.6 | 595.9 | 0.99 | 0.78 | 0.68 | 0.45 | 10/10 | 0.27 | 187.5 | 168.0 | Tumor Volume mean, Day 7 ([10]; 15 mg/kg IV on day 0 and day 7): 181.6 mm^3; Tumor Volume mean, Day 10 ([10]; 15 mg/kg IV on day 0 and day 7): 165.8 mm^3; Tumor Volume mean, Day 14 ([10]; 15 mg/kg IV on day 0 and day 7): 162.8 mm^3; t/c (Treated over control) tumor volume, Day 0 ([10]; 15 mg/kg): 1.01; t/c (Treated over control) tumor volume, Day 3 ([10]; 15 mg/kg): 0.61; t/c (Treated over control) tumor volume, Day 7 ([10]; 15 mg/kg): 0.36; t/c (Treated over control) tumor volume, Day 10 ([10]; 15 mg/kg): 0.16; S/T (D14), Survival over total in group ([10]; 15 mg/kg): 10/10; t/c (Treated over control) tumor volume, Day 14 ([10]; 15 mg/kg): 0.07; efficacy in multi-cycle treatment (FIG. 2) ([10]; multi-cycle treatment): sustained efficacy
42,17′-linked wortmannin-succinate-rapamycin conjugate, N,N,N′-trimethyl 1,3-propanediamine adduct [Compound C] | 0.20 | 0.50 | 1.20 | 0.38 | 2.00 | 4.20 | 1.13 | 193.0 | 209.6 | 437.2 | 691.8 | 1091.7 | 1.04 | 0.76 | 0.88 | 0.66 | 10/10 | 0.49 | 183.6 | 193.5 | Tumor Volume mean, Day 7 ([10]; 15 mg/kg IV on day 0 and day 7): 246.7 mm^3; Tumor Volume mean, Day 10 ([10]; 15 mg/kg IV on day 0 and day 7): 294.2 mm^3; t/c (Treated over control) tumor volume, Day 0 ([10]; 15 mg/kg): 0.99; t/c (Treated over control) tumor volume, Day 3 ([10]; 15 mg/kg): 0.70; t/c (Treated over control) tumor volume, Day 7 ([10]; 15 mg/kg): 0.49; t/c (Treated over control) tumor volume, Day 10 ([10]; 15 mg/kg): 0.28; S/T (D14), Survival over total in group ([10]; 15 mg/kg): 10/10; t/c (Treated over control) tumor volume, Day 14 ([10]; 15 mg/kg): 0.11; antitumor activity (FIG. 2) ([10]; i.v. 1× weekly for 2 rounds at 1.5 mg/kg): improved inhibition of tumor cell growth; antitumor activity (FIG. 2) ([10]; i.v. 1× weekly for 2 rounds at 4.5 mg/kg): some improvement; antitumor activity (FIG. 2) ([10]; i.v. 1× weekly for 8 rounds at 15 mg/kg): Significant improvement
42,17′-linked wortmannin-adipate-rapamycin conjugate, diethylamine adduct [Compound A] | 0.04 | 2.55 | 0.38 | 0.29 | 0.57 | >30 | 8.50 |  |  |  |  |  |  |  |  |  |  |  |  |  | 

Reference: patent US20080249123A1, “WORTMANNIN-RAPAMYCIN CONJUGATE AND USES THEREOF” (Wyeth, priority 2007, published 2008)
